Reference: patent US10689331B2, “IDO inhibitors” (Bristol-Myers Squibb Company, priority 2015, dated 2020)

Biological target: T1, human IDO1 (Homo sapiens, UniProt P14902)
T1 construct: expressed in transfected cells
Assay: HEK Human IDO-1 inhibition assay (kynurenine readout, Ehrlich reagent, absorbance 490 nm)
Type: cell-based
Conditions: human IDO1/HEK293 cells, incubated 20 hours with compound; 500 nM reference standard = 100% inhibition
Experimental: HEK293 cells were transfected with a pCDNA-based mammalian expression vector harboring human IDO1 cDNA (NM 002164.2) by electroporation. They were cultured in medium (DMEM with 10% FBS) containing 1 mg/ml G418 for two weeks. Clones of HEK293 cells that stably expressed human IDO1 protein were selected and expanded for IDO inhibition assay.
The human IDO1/HEK293 cells were seeded at 10,000 cells per 50 uL per well with RPMI/phenol red free media contains 10% FBS in a 384-well black wall clear bottom tissue culture plate (Matrix Technologies LLC) 100 nL of certain concentration of compound was then added to each well using ECHO liquid handling systems. The cells were incubated for 20 hours in 37° C. incubator with 5% CO2.
The compound treatments were stopped by adding Trichloroacetic Acid (Sigma-Aldrich) to a final concentration at 0.2%. The cell plate was further incubated at 50° C. for 30 minute. The equal volume supernatant (20 uL) and 0.2% (w/v) Ehrlich reagent (4-dimethylaminobenzaldehyde, Sigma-Aldrich) in glacial acetic acid were mixed in a new clear bottom 384-well plate. This plate was then incubated at room temperature for 30 minute. The absorbance at 490 nm was measured on Envision plate reader. Compound IC50 values were calculated using the counts of 500 nM of a reference standard treatment as one hundred percent inhibition, and counts of no compound but DMSO treatment as zero percent inhibition.

T1 sequence (P14902 whole entry): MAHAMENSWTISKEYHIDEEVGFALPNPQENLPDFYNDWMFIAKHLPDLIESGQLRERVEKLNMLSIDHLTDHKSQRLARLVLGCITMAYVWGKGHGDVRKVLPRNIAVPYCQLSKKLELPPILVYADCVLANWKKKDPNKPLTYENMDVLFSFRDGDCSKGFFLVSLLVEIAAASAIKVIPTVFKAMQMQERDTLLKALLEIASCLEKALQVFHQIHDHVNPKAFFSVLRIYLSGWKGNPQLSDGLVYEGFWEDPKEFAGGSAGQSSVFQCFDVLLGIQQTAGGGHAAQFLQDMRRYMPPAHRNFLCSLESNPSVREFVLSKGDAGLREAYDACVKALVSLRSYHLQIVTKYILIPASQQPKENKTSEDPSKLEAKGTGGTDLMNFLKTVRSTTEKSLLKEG

Structure (SMILES) | IC50 [nM]
CCCN(Cc1ccccc1)c1ccc(OCC(=O)O)cc1NC(=O)Nc1ccc(C)cc1 [Example 159, 2-(4-(benzyl(propyl)amino)-3-(3-(p-tolyl)ureido)phenoxy)acetic acid] | ≥ 100
CC(Oc1ccc(N(CCC(F)(F)F)C2CCOCC2)c(NC(=O)Nc2ccc(Cl)cc2F)c1)C(=O)O (stereo not drawn) [Example 148, 2-(3-(3-(4-chloro-2-fluorophenyl)ureido)-4-((tetrahydro-2H-pyran-4-yl)(3,3,3-trifluoropropyl)amino)phenoxy)propanoic acid] | ≥ 100
CC(C)CN(c1cc(Cl)c(OCC(=O)O)cc1NC(=O)Nc1ccc(Cl)cc1F)C1CCCCC1 [Example 119, 2-(2-chloro-5-(3-(4-chloro-2-fluorophenyl)ureido)-4-(cyclohexyl(isobutyl)amino)phenoxy)acetic acid] | < 100
CC(C)CN(c1cc(F)c(OCC(=O)O)cc1NC(=O)Nc1ccccc1Cl)C1CCCCC1 [Example 123, 2-(5-(3-(2-chlorophenyl)ureido)-4-(cyclohexyl(isobutyl)amino)-2-fluorophenoxy)acetic acid] | ≥ 100
Cc1cc(NC(=O)Nc2cc(OCC(=O)O)ccc2N(CC(C)C)C2CCCCC2)no1 [Example 7, 2-(4-(cyclohexyl(isobutyl)amino)-3-(3-(5-methylisoxazol-3-yl)ureido)phenoxy)acetic acid] | ≥ 100
CC(C)CN(c1ccc(OCC(=O)O)cc1NC(=O)Nc1ccc(Cl)cc1F)C1CCOCC1 [Example 151, 2-(3-(3-(4-chloro-2-fluorophenyl)ureido)-4-(isobutyl(tetrahydro-2H-pyran-4-yl)amino)phenoxy)acetic acid] | ≥ 100
CC(C)CN(c1ccc(OC(C)C(=O)O)cc1NC(=O)Nc1ccc(C#N)cc1)C1CCCCC1 (single isomer, unassigned) [Example 66-1, 2-(3-(3-(4-cyanophenyl)ureido)-4-(cyclohexyl(isobutyl)amino)phenoxy)propanoic acid] | < 100
CC(C)CN(c1ccc(OCC(=O)O)cc1Nc1nc2ccccc2o1)C1CCCCC1 [Example 44, 2-(3-(benzo[d]oxazol-2-ylamino)-4-(cyclohexyl(isobutyl)amino)phenoxy)acetic acid] | ≥ 100
CC(C)CN(c1ccc(OC(C)C(=O)O)cc1NC(=O)Nc1ccc(Cl)cc1F)C1CCOC1 (single isomer, unassigned) [Example 146-2, 2-(3-(3-(4-chloro-2-fluorophenyl)ureido)-4-(isobutyl(tetrahydrofuran-3-yl)amino)phenoxy)propanoic acid] | < 100
CCCN(Cc1ccccc1)c1ccc(OCC(=O)O)cc1NC(=O)Cc1ccc(C)cc1 [Example 166, 2-(4-(benzyl(propyl)amino)-3-(2-(p-tolyl)acetamido)phenoxy)acetic acid] | ≥ 100
Cc1ccc(NC(=O)Nc2cc(OCC(=O)O)c(Cl)cc2N(CC(C)C)C2CCCCC2)cc1 [Example 122, 2-(2-chloro-4-(cyclohexyl(isobutyl)amino)-5-(3-(p-tolyl)ureido)phenoxy)acetic acid] | ≥ 100
Cc1ccc(CC(=O)Nc2cc(OCC(=O)O)ccc2N(CC(C)C)C2CCCCC2)c(F)c1 [Example 55, 2-(4-(cyclohexyl(isobutyl)amino)-3-(2-(2-fluoro-4-methylphenyl)acetamido)phenoxy)acetic acid] | < 100
Cc1cc(NC(=O)Nc2cc(OCC(=O)O)c(F)cc2N(CC(C)C)C2CCCCC2)on1 [Example 114, 2-(4-(cyclohexyl(isobutyl)amino)-2-fluoro-5-(3-(3-methylisoxazol-5-yl)ureido)phenoxy)acetic acid] | ≥ 100
COc1ccc(NC(=O)Nc2cc(OC(C)C(=O)O)ccc2N(CC(C)C)C2CCCCC2)c(F)c1 (single isomer, unassigned) [Example 64-1, 2-(4-(cyclohexyl(isobutyl)amino)-3-(3-(2-fluoro-4-methoxyphenyl)ureido)phenoxy)propanoic acid] | < 100
CC(C)CN(c1ccc(OCC(=O)O)cc1NC(=O)Nc1ccc(Cl)c(F)c1)C1CCCCC1 [Example 36, 2-(3-(3-(4-chloro-3-fluorophenyl)ureido)-4-(cyclohexyl(isobutyl)amino)phenoxy)acetic acid] | < 100
C=C(C)CN(c1ccc(OCC(=O)O)cc1NC(=O)Nc1ccc(Cl)cc1F)C1COC1 [Example 141, 2-(3-(3-(4-chloro-2-fluorophenyl)ureido)-4-((2-methylallyl)(oxetan-3-yl)amino)phenoxy)acetic acid] | ≥ 100
CC(C)CN(c1ccc(OCC(=O)O)cc1NC(=O)Nc1ccc(Cl)cc1F)C1COC1 [Example 147, 2-(3-(3-(4-chloro-2-fluorophenyl)ureido)-4-(isobutyl(oxetan-3-yl)amino)phenoxy)acetic acid] | ≥ 100
CC(C)CN(c1ccc(OCC(=O)O)cc1NC(=O)Cc1ccc(Cl)cc1F)C1CCCCC1 [Example 110, 2-(3-(2-(4-chloro-2-fluorophenyl)acetamido)-4-(cyclohexyl(isobutyl)amino)phenoxy)acetic acid] | < 100

Second part, the compound after the results:

IC50 [nM] | Structure (SMILES)
< 100 | Cc1ccc(CC(=O)Nc2cc(OC(C)C(=O)O)ccc2N(CC(C)C)C2CCCCC2)cc1 (racemic) [Example 75, 2-(4-(cyclohexyl(isobutyl)amino)-3-(2-(p-tolyl)acetamido)phenoxy)propanoic acid]
< 5 | CC(C)CN(c1cc(F)c(OCC(=O)O)cc1NC(=O)Nc1cc(F)ccc1F)C1CCCCC1 [Example 126, 2-(4-(cyclohexyl(isobutyl)amino)-5-(3-(2,5-difluorophenyl)ureido)-2-fluorophenoxy)acetic acid]
< 5 | C=C(C)CN(c1ccc(OC(C)C(=O)O)cc1NC(=O)Nc1ccc(Cl)cc1F)C1CCOCC1 (single isomer, unassigned) [Example 139-2, 2-(3-(3-(4-chloro-2-fluorophenyl)ureido)-4-((2-methylallyl)(tetrahydro-2H-pyran-4-yl)amino)phenoxy)propanoic acid]
< 5 | CCC(Oc1ccc(N(CC(C)C)C2CCCCC2)c(NC(=O)Nc2ccccc2F)c1)C(=O)O (single isomer, unassigned) [Example 81-1, 2-(4-(cyclohexyl(isobutyl)amino)-3-(3-(2-fluorophenyl)ureido)phenoxy)butanoic acid]
< 5 | CC(C)CN(c1cc(F)c(OC(C)C(=O)O)cc1NC(=O)Nc1ccc(Cl)cc1F)C1CCCCC1 (racemic) [racemic 136]
< 5 | CC(C)CN(c1ncc(OCC(=O)NS(=O)(=O)C2CC2)cc1NC(=O)Nc1ccc(Cl)cc1F)C1CCCCC1 [Example 103, 2-((5-(3-(4-chloro-2-fluorophenyl)ureido)-6-(cyclohexyl(isobutyl)amino)pyridin-3-yl)oxy)-N-(cyclopropylsulfonyl)acetamide]
< 5 | CC(C)CN(c1ccc(OC(C)(C)C(=O)O)cc1NC(=O)Nc1ccc(Cl)cc1F)C1CCCCC1 [Example 91, 2-(3-(3-(4-chloro-2-fluorophenyl)ureido)-4-(cyclohexyl(isobutyl)amino)phenoxy)-2-methylpropanoic acid]
< 5 | CCCC(Oc1ccc(N(CC(C)C)C2CCCCC2)c(NC(=O)Nc2ccccc2F)c1)C(=O)O (single isomer, unassigned) [Example 87-1, 2-(4-(cyclohexyl(isobutyl)amino)-3-(3-(2-fluorophenyl)ureido)phenoxy)pentanoic acid]
< 5 | CC(C)CN(c1c(F)cc(OCC(=O)O)cc1NC(=O)Nc1cc(F)ccc1F)C1CCCCC1 [Example 106, 2-(4-(cyclohexyl(isobutyl)amino)-3-(3-(2,5-difluorophenyl)ureido)-5-fluorophenoxy)acetic acid]
< 5 | CC(C)CN(c1ccc(OC(C)C(=O)NS(=O)(=O)C2CC2)cc1NC(=O)Nc1ccc(Cl)cc1F)C1CCCCC1 (racemic) [Example 70, (±)-2-(3-(3-(4-chloro-2-fluorophenyl)ureido)-4-(cyclohexyl(isobutyl)amino)phenoxy)-N-(cyclopropylsulfonyl) propanamide]
< 5 | Cc1ccc(NC(=O)Nc2cc(OC(C)C(=O)O)ccc2N(CC(C)C)C2CCCCC2)c(F)c1 (racemic) [racemic 65]
< 5 | CC(C)CN(c1ccc(OCC(=O)NS(=O)(=O)N(C)C)cc1NC(=O)Nc1ccc(Cl)cc1F)C1CCCCC1 [Example 46, 2-(3-(3-(4-chloro-2-fluorophenyl)ureido)-4-(cyclohexyl(isobutyl)amino)phenoxy)-N—(N,N-dimethylsulfamoyl)acetamide]
< 5 | CCC(Oc1ccc(N(CC(C)C)C2CCCCC2)c(NC(=O)Nc2ccccc2F)c1)C(=O)O (single isomer, unassigned) [Example 81-2, 2-(4-(cyclohexyl(isobutyl)amino)-3-(3-(2-fluorophenyl)ureido)phenoxy)butanoic acid]
< 5 | CC(C)CN(c1ccc(OCC(=O)O)cc1NC(=O)Nc1ccc(Br)cc1F)C1CCC(F)(F)CC1 [Example 99, 2-(3-(3-(4-Bromo-2-fluorophenyl)ureido)-4-((4,4-difluorocyclohexyl)(isobutyl)amino)-phenoxy)acetic acid]
< 5 | CC(C)CN(c1ccc(OC(C)C(=O)O)cc1NC(=O)Nc1ccccc1F)C1CCCCC1 (single isomer, unassigned) [Example 59-1, 2-(4-(cyclohexyl(isobutyl)amino)-3-(3-(2-fluoro-phenyl)ureido)phenoxy)propanoic acid]
